The values below come from patent publication US9340590B2 (priority 2011, dated 2016).

Positions of bridges follow the written chain, without caps; N, C: chain ends. Non-standard residues stand in square brackets, D forms with d. Residues, ends and D or L forms follow the SMILES beside them. 3Pal = N[C@@H](Cc1cccnc1)C(=O)O; Pra = C#CC[C@H](N)C(=O)O

Assay in all cases: cell-based
One assay addresses hNav1.3 (Homo sapiens, UniProt Q9NY46). To be noted: IonWorks Quattro, use-dependent block, hNav1.3; read-out: IWQ Use Nav1.3. (Patch clamp records ionic current or voltage across a cell membrane.)
The target of another assay is hNav1.7 (Homo sapiens, UniProt Q15858). Type of assay: cell-based. As to conditions: IonWorks Quattro, use-dependent block, hNav1.7; read-out: IWQ Use Nav1.7.
Chain of hNav1.7 (Q15858 whole entry, looked up): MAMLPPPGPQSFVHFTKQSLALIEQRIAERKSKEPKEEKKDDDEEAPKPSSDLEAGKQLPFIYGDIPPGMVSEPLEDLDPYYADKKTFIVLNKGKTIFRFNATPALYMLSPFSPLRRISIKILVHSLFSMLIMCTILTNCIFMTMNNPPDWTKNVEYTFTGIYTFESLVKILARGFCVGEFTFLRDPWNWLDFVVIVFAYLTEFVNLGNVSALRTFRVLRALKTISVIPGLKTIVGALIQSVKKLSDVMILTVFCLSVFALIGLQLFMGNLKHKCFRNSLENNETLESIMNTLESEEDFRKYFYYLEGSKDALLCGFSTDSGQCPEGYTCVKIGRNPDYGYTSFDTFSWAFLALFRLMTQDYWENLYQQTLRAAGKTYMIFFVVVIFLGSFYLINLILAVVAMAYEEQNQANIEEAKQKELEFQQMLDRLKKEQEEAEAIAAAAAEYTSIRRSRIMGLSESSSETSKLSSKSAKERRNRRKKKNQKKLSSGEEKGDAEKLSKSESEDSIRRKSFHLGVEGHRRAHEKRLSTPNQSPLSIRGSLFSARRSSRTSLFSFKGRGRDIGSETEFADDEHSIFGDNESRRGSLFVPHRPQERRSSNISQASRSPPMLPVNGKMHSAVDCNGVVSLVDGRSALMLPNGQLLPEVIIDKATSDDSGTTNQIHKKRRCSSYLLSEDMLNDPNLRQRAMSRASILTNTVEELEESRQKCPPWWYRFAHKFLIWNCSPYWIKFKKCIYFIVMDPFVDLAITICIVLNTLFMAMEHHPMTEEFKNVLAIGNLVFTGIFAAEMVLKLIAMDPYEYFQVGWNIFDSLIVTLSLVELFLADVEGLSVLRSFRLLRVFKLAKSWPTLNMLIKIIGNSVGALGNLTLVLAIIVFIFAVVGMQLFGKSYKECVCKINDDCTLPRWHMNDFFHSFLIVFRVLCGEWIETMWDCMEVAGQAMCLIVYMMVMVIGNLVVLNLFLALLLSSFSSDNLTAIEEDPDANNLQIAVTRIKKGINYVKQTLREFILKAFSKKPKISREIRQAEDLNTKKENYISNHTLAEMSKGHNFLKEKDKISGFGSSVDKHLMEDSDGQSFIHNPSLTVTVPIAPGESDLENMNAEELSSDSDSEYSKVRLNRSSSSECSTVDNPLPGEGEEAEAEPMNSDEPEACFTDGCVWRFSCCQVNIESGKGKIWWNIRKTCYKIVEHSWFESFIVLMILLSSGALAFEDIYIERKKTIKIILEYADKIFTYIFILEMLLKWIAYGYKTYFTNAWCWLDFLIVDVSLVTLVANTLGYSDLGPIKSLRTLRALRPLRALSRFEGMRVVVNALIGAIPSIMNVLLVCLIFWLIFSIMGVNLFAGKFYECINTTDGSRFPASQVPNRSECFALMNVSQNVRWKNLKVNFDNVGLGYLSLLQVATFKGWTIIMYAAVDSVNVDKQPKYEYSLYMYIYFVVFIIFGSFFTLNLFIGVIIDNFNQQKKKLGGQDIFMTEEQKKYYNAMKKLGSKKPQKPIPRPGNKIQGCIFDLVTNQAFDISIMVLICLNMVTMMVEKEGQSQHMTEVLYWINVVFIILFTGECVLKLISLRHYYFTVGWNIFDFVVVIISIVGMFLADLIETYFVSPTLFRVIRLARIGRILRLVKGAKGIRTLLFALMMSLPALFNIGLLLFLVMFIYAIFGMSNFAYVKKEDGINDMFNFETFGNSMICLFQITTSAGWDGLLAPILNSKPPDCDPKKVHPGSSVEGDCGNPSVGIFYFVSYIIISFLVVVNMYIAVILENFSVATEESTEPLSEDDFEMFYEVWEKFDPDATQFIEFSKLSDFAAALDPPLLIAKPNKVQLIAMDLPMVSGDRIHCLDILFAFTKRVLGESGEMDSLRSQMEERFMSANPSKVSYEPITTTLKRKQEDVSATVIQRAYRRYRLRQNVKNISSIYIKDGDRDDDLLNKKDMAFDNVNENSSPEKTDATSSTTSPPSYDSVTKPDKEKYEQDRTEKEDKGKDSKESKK
The target in another assay is hNav1.5 (Homo sapiens, UniProt Q14524). As to conditions: IonWorks Quattro, use-dependent block, hNav1.5; read-out: IWQ Use Nav1.5.
Chain of hNav1.5 (Q14524 whole entry, looked up): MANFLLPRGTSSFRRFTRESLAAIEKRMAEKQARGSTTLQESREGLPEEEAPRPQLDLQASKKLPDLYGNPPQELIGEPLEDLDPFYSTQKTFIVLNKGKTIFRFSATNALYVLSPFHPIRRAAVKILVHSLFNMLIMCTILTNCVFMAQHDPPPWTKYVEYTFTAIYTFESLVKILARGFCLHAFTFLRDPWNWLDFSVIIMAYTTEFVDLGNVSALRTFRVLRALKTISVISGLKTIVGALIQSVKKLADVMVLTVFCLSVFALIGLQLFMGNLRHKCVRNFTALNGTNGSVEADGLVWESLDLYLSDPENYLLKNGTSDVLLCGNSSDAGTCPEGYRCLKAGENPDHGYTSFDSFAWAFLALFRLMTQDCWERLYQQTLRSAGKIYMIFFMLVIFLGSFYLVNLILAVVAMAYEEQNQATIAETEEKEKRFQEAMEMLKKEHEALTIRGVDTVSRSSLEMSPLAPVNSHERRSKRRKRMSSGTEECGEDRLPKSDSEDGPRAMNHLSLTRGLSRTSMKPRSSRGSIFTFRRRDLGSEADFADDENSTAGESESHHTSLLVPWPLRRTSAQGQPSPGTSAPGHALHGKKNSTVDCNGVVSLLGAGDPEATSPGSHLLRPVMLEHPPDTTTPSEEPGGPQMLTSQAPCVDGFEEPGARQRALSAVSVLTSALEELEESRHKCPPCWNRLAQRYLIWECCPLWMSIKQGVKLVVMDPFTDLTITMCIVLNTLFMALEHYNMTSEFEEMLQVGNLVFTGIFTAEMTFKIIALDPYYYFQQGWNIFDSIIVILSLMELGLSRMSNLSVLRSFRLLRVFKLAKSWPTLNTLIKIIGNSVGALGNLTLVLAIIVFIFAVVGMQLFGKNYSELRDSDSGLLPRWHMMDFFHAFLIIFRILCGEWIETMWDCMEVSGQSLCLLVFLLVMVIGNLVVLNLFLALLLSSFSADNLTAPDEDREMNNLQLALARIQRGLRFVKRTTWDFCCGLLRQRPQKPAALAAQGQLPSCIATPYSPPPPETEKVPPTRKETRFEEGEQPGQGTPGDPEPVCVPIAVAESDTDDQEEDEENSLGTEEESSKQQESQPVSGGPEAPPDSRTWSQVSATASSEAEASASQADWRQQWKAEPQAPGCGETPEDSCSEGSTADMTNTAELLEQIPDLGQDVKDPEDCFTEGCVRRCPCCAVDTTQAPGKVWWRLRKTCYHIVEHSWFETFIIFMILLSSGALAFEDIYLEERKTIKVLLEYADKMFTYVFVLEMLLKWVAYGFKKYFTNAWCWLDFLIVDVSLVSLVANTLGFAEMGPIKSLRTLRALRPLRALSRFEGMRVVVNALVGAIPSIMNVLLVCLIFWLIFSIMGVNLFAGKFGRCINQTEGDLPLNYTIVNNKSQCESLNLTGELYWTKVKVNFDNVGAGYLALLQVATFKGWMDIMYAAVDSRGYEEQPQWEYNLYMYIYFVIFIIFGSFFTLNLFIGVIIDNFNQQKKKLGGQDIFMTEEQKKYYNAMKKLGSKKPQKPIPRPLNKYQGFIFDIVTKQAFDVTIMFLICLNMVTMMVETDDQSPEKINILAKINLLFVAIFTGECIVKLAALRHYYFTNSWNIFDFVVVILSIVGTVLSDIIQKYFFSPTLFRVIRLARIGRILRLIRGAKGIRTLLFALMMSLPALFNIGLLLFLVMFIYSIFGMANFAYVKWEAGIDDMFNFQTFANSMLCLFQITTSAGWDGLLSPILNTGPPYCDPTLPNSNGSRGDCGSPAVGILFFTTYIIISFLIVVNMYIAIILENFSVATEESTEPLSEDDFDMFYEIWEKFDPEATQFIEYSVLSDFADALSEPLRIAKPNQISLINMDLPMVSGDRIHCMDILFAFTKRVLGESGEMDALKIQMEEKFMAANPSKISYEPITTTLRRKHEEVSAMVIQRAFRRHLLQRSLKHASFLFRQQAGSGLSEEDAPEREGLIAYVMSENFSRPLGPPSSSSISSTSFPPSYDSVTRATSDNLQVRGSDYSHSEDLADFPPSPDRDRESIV

As for `CC[C@H](C)[C@@H]1NC(=O)[C@@H]2CSSC[C@@H]3NC(=O)[C@H](C(C)C)NC(=O)[C@H](CC(C)C)NC(=O)[C@H](CC(N)=O)NC(=O)[C@@H]4CCCN4C(=O)[C@H](CCCNC(=N)N)NC(=O)[C@H](CSSC[C@H](NC(=O)[C@@H](N)CC(=O)O)C(=O)N[C@@H](CC(C)C)C(=O)NCC(=O)N[C@@H](C)C(=O)N[C@@H](Cc4ccccc4)C(=O)N[C@@H](CCCNC(=N)N)C(=O)N[C@@H](CCCCN)C(=O)N2)NC(=O)[C@H](CSSC[C@@H](C(=O)N[C@@H](CCCCN)C(=O)N[C@@H](Cc2ccc(O)cc2)C(=O)N[C@H](C(=O)N[C@@H](Cc2ccccc2)C(N)=O)C(C)C)NC(=O)[C@H](Cc2c[nH]c4ccccc24)NC(=O)[C@H](CCCCN)NC(=O)[C@H](Cc2c[nH]cn2)NC(=O)[C@H]([C@@H](C)O)NC(=O)[C@H](C)NC(=O)[C@H](CO)NC3=O)NC(=O)[C@H](CCCCN)NC(=O)[C@H](CC(=O)O)NC(=O)[C@H](CC(N)=O)NC(=O)[C@H](CC(=O)O)NC(=O)[C@@H]2CCCN2C1=O` [compound 732] (H-DCLGAFRKCIPDNDKCCRPNLVCSATHKWCKYVF-NH2; disulfide 2-17, 9-23, 16-30), the IC50 at hNav1.3 is 600 nM; at hNav1.7, 290 nM; on hNav1.5, over 50000 nM.
For `CC[C@H](C)[C@@H]1NC(=O)[C@@H]2CSSC[C@@H]3NC(=O)[C@H](C(C)C)NC(=O)[C@H](CC(C)C)NC(=O)[C@H](CC(N)=O)NC(=O)[C@@H]4CCCN4C(=O)[C@H](CCCNC(=N)N)NC(=O)[C@H](CSSC[C@H](NC(=O)[C@@H](N)CC(=O)O)C(=O)N[C@@H](CC(C)C)C(=O)NCC(=O)N[C@@H](C)C(=O)N[C@@H](CC(C)C)C(=O)N[C@@H](CCCNC(=N)N)C(=O)N[C@@H](CCCCN)C(=O)N2)NC(=O)[C@H](CSSC[C@@H](C(=O)N[C@@H](CCCCN)C(=O)N[C@@H](Cc2ccc(O)cc2)C(=O)N[C@H](C(=O)N[C@@H](Cc2ccccc2)C(N)=O)C(C)C)NC(=O)[C@H](Cc2c[nH]c4ccccc24)NC(=O)[C@H](CCCCN)NC(=O)[C@H](Cc2c[nH]cn2)NC(=O)[C@H]([C@@H](C)O)NC(=O)[C@H](CCC(=O)O)NC(=O)[C@H](CO)NC3=O)NC(=O)[C@H](CCCCN)NC(=O)[C@H](CC(=O)O)NC(=O)[C@H](CC(N)=O)NC(=O)[C@H](CC(=O)O)NC(=O)[C@@H]2CCCN2C1=O` [compound 734] the same measures were 9300 nM, 1800 nM and 41000 nM.
On to `CC[C@H](C)[C@@H]1NC(=O)[C@@H]2CSSC[C@@H]3NC(=O)[C@H](C(C)C)NC(=O)[C@H](CC(C)C)NC(=O)[C@H](CC(N)=O)NC(=O)[C@@H]4CCCN4C(=O)[C@H](CCCNC(=N)N)NC(=O)[C@H](CSSC[C@H](NC(=O)[C@@H](N)CC(=O)O)C(=O)N[C@@H](CC(C)C)C(=O)NCC(=O)N[C@@H](C)C(=O)N[C@@H](Cc4ccccc4)C(=O)N[C@@H](CCCNC(=N)N)C(=O)N[C@@H](CCCCN)C(=O)N2)NC(=O)[C@H](CSSC[C@@H](C(=O)N[C@@H](CCCCN)C(=O)N[C@@H](Cc2ccc(O)cc2)C(=O)N[C@H](C(=O)N[C@@H](Cc2ccccc2)C(N)=O)C(C)C)NC(=O)[C@H](Cc2c[nH]c4ccccc24)NC(=O)[C@H](CCCCN)NC(=O)[C@H](Cc2c[nH]cn2)NC(=O)[C@H]([C@@H](C)O)NC(=O)[C@H](CCC(=O)O)NC(=O)[C@H](CO)NC3=O)NC(=O)[C@H](CCCCN)NC(=O)[C@H](CC(=O)O)NC(=O)[C@H](CC(N)=O)NC(=O)[C@H](CC(=O)O)NC(=O)[C@@H]2CCCN2C1=O` [compound 735] (H-DCLGAFRKCIPDNDKCCRPNLVCSETHKWCKYVF-NH2; disulfide 2-17, 9-23, 16-30), for which the IC50 on hNav1.3 came to 3600 nM; on hNav1.7, 1500 nM; on hNav1.5, 41000 nM.
For `C#CC[C@@H]1NC(=O)[C@H](CC(=O)O)NC(=O)[C@H](CC(N)=O)NC(=O)[C@H](CC(=O)O)NC(=O)[C@@H]2CCCN2C(=O)[C@H]([C@@H](C)CC)NC(=O)[C@@H]2CSSC[C@@H]3NC(=O)[C@H](C(C)C)NC(=O)[C@H](CC(C)C)NC(=O)[C@H](CC(N)=O)NC(=O)[C@@H]4CCCN4C(=O)[C@H](CCCNC(=N)N)NC(=O)[C@H](CSSC[C@H](NC(=O)[C@@H](N)CC(=O)O)C(=O)N[C@@H](CC(C)C)C(=O)NCC(=O)N[C@@H](Cc4ccccc4)C(=O)N[C@@H](Cc4ccccc4)C(=O)N[C@@H](CCCNC(=N)N)C(=O)N[C@@H](CCCCN)C(=O)N2)NC(=O)[C@H](CSSC[C@@H](C(=O)N[C@@H](CCCCN)C(=O)N[C@@H](Cc2ccc(O)cc2)C(=O)N[C@H](C(=O)N[C@@H](Cc2ccccc2)C(N)=O)C(C)C)NC(=O)[C@H](Cc2c[nH]c4ccccc24)NC(=O)[C@H](CCCCN)NC(=O)[C@H](Cc2c[nH]cn2)NC(=O)[C@H]([C@@H](C)O)NC(=O)[C@H](CCCNC(=N)N)NC(=O)[C@H](CO)NC3=O)NC1=O` [compound 736] (H-DCLGFFRKCIPDND[Pra]CCRPNLVCSRTHKWCKYVF-NH2; disulfide 2-17, 9-23, 16-30) the same measures were over 5000 nM, over 5000 nM and 32600 nM.
Regarding `CC[C@H](C)[C@@H]1NC(=O)[C@@H]2CSSC[C@@H]3NC(=O)[C@H](C(C)C)NC(=O)[C@H](CC(C)C)NC(=O)[C@H](CC(N)=O)NC(=O)[C@@H]4CCCN4C(=O)[C@H](CCCNC(=N)N)NC(=O)[C@H](CSSC[C@H](NC(=O)[C@@H](N)CC(=O)O)C(=O)N[C@@H](CC(C)C)C(=O)NCC(=O)N[C@@H](C)C(=O)N[C@@H](CCSC)C(=O)N[C@@H](CCCNC(=N)N)C(=O)N[C@@H](CCCCN)C(=O)N2)NC(=O)[C@H](CSSC[C@@H](C(=O)N[C@@H](CCCCN)C(=O)N[C@@H](Cc2ccc(O)cc2)C(=O)N[C@H](C(=O)N[C@@H](Cc2ccccc2)C(N)=O)C(C)C)NC(=O)[C@H](Cc2c[nH]c4ccccc24)NC(=O)[C@H](Cc2c[nH]cn2)NC(=O)[C@H](Cc2c[nH]cn2)NC(=O)[C@H]([C@@H](C)O)NC(=O)[C@H](CCCNC(=N)N)NC(=O)[C@H](CO)NC3=O)NC(=O)[C@H](CCCCN)NC(=O)[C@H](CC(=O)O)NC(=O)[C@H](CC(N)=O)NC(=O)[C@H](CC(=O)O)NC(=O)[C@@H]2CCCN2C1=O` [compound 737] (H-DCLGAMRKCIPDNDKCCRPNLVCSRTHHWCKYVF-NH2; disulfide 2-17, 9-23, 16-30), the IC50 is 1600 nM on hNav1.3, 400 nM at hNav1.7 and 19200 nM on hNav1.5.
For the compound `CC[C@H](C)[C@@H]1NC(=O)[C@@H]2CSSC[C@@H]3NC(=O)[C@H](C(C)C)NC(=O)[C@H](CC(C)C)NC(=O)[C@H](CC(N)=O)NC(=O)[C@@H]4CCCN4C(=O)[C@H](CCCNC(=N)N)NC(=O)[C@H](CSSC[C@H](NC(=O)[C@@H](N)CC(=O)O)C(=O)N[C@@H](CC(C)C)C(=O)NCC(=O)N[C@@H](C)C(=O)N[C@@H](CCSC)C(=O)N[C@@H](CCCNC(=N)N)C(=O)N[C@@H](CCCCN)C(=O)N2)NC(=O)[C@H](CSSC[C@@H](C(=O)N[C@@H](CCCCN)C(=O)N[C@@H](Cc2ccc(O)cc2)C(=O)N[C@H](C(=O)N[C@@H](Cc2ccccc2)C(N)=O)C(C)C)NC(=O)[C@H](Cc2c[nH]c4ccccc24)NC(=O)[C@H](CO)NC(=O)[C@H](Cc2c[nH]cn2)NC(=O)[C@H]([C@@H](C)O)NC(=O)[C@H](CCCNC(=N)N)NC(=O)[C@H](CO)NC3=O)NC(=O)[C@H](CCCCN)NC(=O)[C@H](CC(=O)O)NC(=O)[C@H](CC(N)=O)NC(=O)[C@H](CC(=O)O)NC(=O)[C@@H]2CCCN2C1=O` [compound 738] (H-DCLGAMRKCIPDNDKCCRPNLVCSRTHSWCKYVF-NH2; disulfide 2-17, 9-23, 16-30), the IC50 at hNav1.3 stood at 1800 nM; on hNav1.7, 650 nM; on hNav1.5, 21900 nM.
For `CC[C@H](C)[C@@H]1NC(=O)[C@@H]2CSSC[C@@H]3NC(=O)[C@H](C(C)C)NC(=O)[C@H](CC(C)C)NC(=O)[C@H](CC(N)=O)NC(=O)[C@@H]4CCCN4C(=O)[C@H](CCCNC(=N)N)NC(=O)[C@H](CSSC[C@H](NC(=O)[C@@H](N)CC(=O)O)C(=O)N[C@@H](CC(C)C)C(=O)NCC(=O)N[C@@H](C)C(=O)N[C@@H](CCSC)C(=O)N[C@@H](CCCNC(=N)N)C(=O)N[C@@H](CCCCN)C(=O)N2)NC(=O)[C@H](CSSC[C@@H](C(=O)N[C@@H](CCCCN)C(=O)N[C@@H](Cc2ccc(O)cc2)C(=O)N[C@H](C(=O)N[C@@H](Cc2ccccc2)C(N)=O)C(C)C)NC(=O)[C@H](Cc2c[nH]c4ccccc24)NC(=O)[C@H](CCC(N)=O)NC(=O)[C@H](Cc2c[nH]cn2)NC(=O)[C@H]([C@@H](C)O)NC(=O)[C@H](CCCNC(=N)N)NC(=O)[C@H](CO)NC3=O)NC(=O)[C@H](CCCCN)NC(=O)[C@H](CC(=O)O)NC(=O)[C@H](CC(N)=O)NC(=O)[C@H](CC(=O)O)NC(=O)[C@@H]2CCCN2C1=O` [compound 739] (H-DCLGAMRKCIPDNDKCCRPNLVCSRTHQWCKYVF-NH2; disulfide 2-17, 9-23, 16-30) the same measures were 2200 nM, 630 nM and 20500 nM.
Consider `CC[C@H](C)[C@@H]1NC(=O)[C@@H]2CSSC[C@@H]3NC(=O)[C@H](C(C)C)NC(=O)[C@H](CC(C)C)NC(=O)[C@H](CC(N)=O)NC(=O)[C@@H]4CCCN4C(=O)[C@H](CCCNC(=N)N)NC(=O)[C@H](CSSC[C@H](NC(=O)[C@@H](N)CC(=O)O)C(=O)N[C@@H](CC(C)C)C(=O)NCC(=O)N[C@@H](C)C(=O)N[C@@H](CCSC)C(=O)N[C@@H](CCCNC(=N)N)C(=O)N[C@@H](CCCCN)C(=O)N2)NC(=O)[C@H](CSSC[C@@H](C(=O)N[C@@H](CCCCN)C(=O)N[C@@H](Cc2ccc(O)cc2)C(=O)N[C@H](C(=O)N[C@@H](Cc2ccccc2)C(N)=O)C(C)C)NC(=O)[C@H](Cc2c[nH]c4ccccc24)NC(=O)[C@H](Cc2cccnc2)NC(=O)[C@H](Cc2c[nH]cn2)NC(=O)[C@H]([C@@H](C)O)NC(=O)[C@H](CCCNC(=N)N)NC(=O)[C@H](CO)NC3=O)NC(=O)[C@H](CCCCN)NC(=O)[C@H](CC(=O)O)NC(=O)[C@H](CC(N)=O)NC(=O)[C@H](CC(=O)O)NC(=O)[C@@H]2CCCN2C1=O` [compound 740] (H-DCLGAMRKCIPDNDKCCRPNLVCSRTH[3Pal]WCKYVF-NH2; disulfide 2-17, 9-23, 16-30), for which the figures for the IC50 on hNav1.3, on hNav1.7 and on hNav1.5 were over 5000 nM, 1500 nM and 31100 nM, respectively.
